Measured values published in patent publication US20050277161A1, “Phosphopeptide antigens associated with MHC molecules” (priority 2004, published 2005).
Non-standard residues stand in square brackets, D forms with d. No end group written: not given here. pS = N[C@@H](COP(=O)(O)O)C(=O)O

Test system: COV413.AAD.A4 ovarian carcinoma, DM331.AAD.A4 and SLM2.AAD.A1 melanomas, MCF7.AAD.A2 and MDAMB231.AAD breast carcinomas, and JY EBV-BLCL
Assay: Recognition of naturally processed phosphopeptides on cancer cells by phosphopeptide-specific CTL (murine IFNγ ELISA)
Format: cell-based
Settings: for recognition of the phosphopeptide on cancer cell lines by phosphopeptide-specific CTL (murine IFNγ in supernatant): murine CTL lines 50,000/well incubated 24 hours with 25,000 cancer cells/well, ovarian carcinoma, melanoma and breast carcinoma lines; for recognition of the phosphopeptide on the control cell line by phosphopeptide-specific CTL (murine IFNγ in supernatant): murine CTL lines 50,000/well incubated 24 hours with 25,000 cells/well, control JY EBV-BLCL
Method: FIG. 1, comprising FIGS. 1A and 1B, is a graphic illustration of the recognition of naturally processed and presented phosphorylated peptides on cancer cells by the phosphopeptide-specific CTL. Phosphopeptide-specific CTL were incubated with the following cancer cell lines or EBV-transformed B lymphoblastoid cell lines (BLCL): COV413.AAD.A4 ovarian carcinoma, DM331 .AAD.A4 and SLM2.AAD.A1 melanomas, MCF7.AAD.A2 and MDAMB231.AAD breast carcinomas, and JY EBV-BLCL. Supernatants were harvested and evaluated for the presence of murine IFNγ (produced by murine CTL lines). […] The ordinate indicates murine IFNγ in pg/ml. The abscissa indicates each cell line.
CTL specific for two of the antigen peptides were generated by long term culture with the peptides. Two CTL lines specific for the antigen peptide GLLGpSPVRA, lines 6850 and 6960, SEQ ID NO: 13, and two CTL lines specific for the antigen peptide RVApSPTSGV, SEQ ID NO: 14, lines 5183 and 63 were used to detect these two antigen peptides on cancer cells. The phosphopeptide-specific CTL (50,000 CTL/well) were incubated 24 hours with the following cancer cell lines or EBV-transformed B lymphoblastoid cell lines (BLCL) (25,000 cells/well): COV413.AAD.A4 ovarian carcinoma, DM331.AAD.A4 and SLM2.AAD.A1 melanomas, MCF7.AAD.A2 and MDAMB231.AAD breast carcinomas, and JY EBV-BLCL. Supernatants were harvested 24 hours later and evaluated for the presence of murine IFNγ (produced by murine CTL lines) by ELISA (eBioscience Ready-Set-go murine IFNγ ELISA kit).

## RVApSPTSGV (RVA[pS]PTSGV; listed as Homo sapiens) [phosphopeptide from Insulin receptor substrate-2; HLA-A2.1]
  recognition of the phosphopeptide on cancer cell lines by phosphopeptide-specific CTL (murine IFNγ in supernatant): recognize the phosphopeptide on all the cancer cell lines
  recognition of the phosphopeptide on the control cell line by phosphopeptide-specific CTL (murine IFNγ in supernatant): not the control cell line

## GLLGpSPVRA (GLLG[pS]PVRA; listed as Homo sapiens) [phosphopeptide from CDC25b:p63; HLA-A2.1]
  recognition of the phosphopeptide on cancer cell lines by phosphopeptide-specific CTL (murine IFNγ in supernatant): recognize the phosphopeptide on all the cancer cell lines
  recognition of the phosphopeptide on the control cell line by phosphopeptide-specific CTL (murine IFNγ in supernatant): not the control cell line
